From article PMC3606385 (PLoS ONE, 2013)
“And” between values parts separate entries of the source, which are not always exact repeats. Equal values may be shown once. “Also recorded” adds a separate entry of the source. Marks after values point to notes of the source that are not given here.

How the values were obtained:
human liver 11β-HSD1 = target: T1, human liver 11β-HSD1 (Homo sapiens, UniProt P28845); assay: Mode of inhibition, human liver 11β-HSD1; format: biochemical; conditions: data not shown
T1 construct: tissue Gentest (Woburn, MA); host or cells: human liver microsomes
T1 sequence (P28845 whole entry): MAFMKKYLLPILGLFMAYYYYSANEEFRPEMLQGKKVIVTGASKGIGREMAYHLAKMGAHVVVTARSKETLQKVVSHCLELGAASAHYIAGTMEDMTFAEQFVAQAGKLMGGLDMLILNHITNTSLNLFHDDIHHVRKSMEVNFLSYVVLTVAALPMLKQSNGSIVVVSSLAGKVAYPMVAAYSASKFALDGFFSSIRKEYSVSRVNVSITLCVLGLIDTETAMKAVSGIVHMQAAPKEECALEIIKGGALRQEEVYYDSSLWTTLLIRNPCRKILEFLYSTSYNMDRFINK
Procedure: (§1) The rat testis and liver or human liver microsomes were used for 11β-HSD1 assay. 11β-HSD1 activity was performed in the microsome according to a previously described method. In brief, the assay tubes contained 25 nM substrate 11DHC (for rat) or cortisone (for human), spiked with 30,000 cpm their respective ^3H-11keto-steroid, 0.2 mM NADPH and 5 mM glucose-6-phosphaare in the PBS buffer. 2 µg microsomes were added to each tube to initiate the reaction and the reaction mixture was incubated for up to 2 hrs, during which the reaction is within the linear range. The rest procedure was similar to 11β-HSD1 assay in intact cells.
(§2) The IC50 was determined by adding different concentrations of each compound in the 11β-HSD1 or 11β-HSD2 reaction as described. The mode of inhibition was assayed by adding various concentrations of steroid substrates in the presence of an inhibitor as described.
Enzyme data were subjected to nonlinear analysis by GraphPad (Version 5, GraphPad Software Inc., San Diego, CA) for IC50. Lineweaver-Burk plot was used for the mode of inhibition. Data were subjected to analysis by one-way ANOVA followed by Tukey's multiple comparisons testing to identify significant differences between groups when three were calculated. Differences were regarded as significant at P<0.05.

Human 11β-HSD1 [1] = target: T2, Human 11β-HSD1 (Homo sapiens, UniProt P28845); assay: 11β-HSD1 assay in intact CHOP cells transfected with human HSD11B1; format: cell-based
T2 construct: expressed in transfected cells; host or cells: CHOP cells (transient, FuGENE)
T2 sequence (P28845 whole entry): as above
Procedure: (§3) An expression plasmid was constructed to express human 11β-HSD1 (HSD11B1) cDNA in pcDNA I expression vector from its original human HSD11B1 vector (pBluescriptSK+).[15]. The Escherichia coli transformants carrying an insert were selected by colony hybridization, and a clone with the insert in the correct orientation relative to the vector T7 promoter was identified by restriction mapping. All transfections were carried out on 80% confluent cultures in 12-well plates. Aliquots of 1 µg HSD11B1 pcDNA I were transfected into mammalian CHOP cells with the FuGENE Transfection Reagent (Roche) according to manufacturer's protocol. Cells were allowed to grow for 24 hours in media containing 10% fetal bovine serum. Then media were removed and cells were harvested for 11β-HSD1 activity assay.
11β-HSD1 reductase activity was performed in intact cells using endogenous cofactor NADPH as described previously. […] 25×10^3 cells were added to each tube to initiate the reaction and the reaction mixture was incubated for up to 2 hrs, during which the reaction is within the linear range. At the end of reaction, the reaction was stopped by adding 2 ml ice-cold ether. The steroids were extracted, and the organic layer was dried under nitrogen. The steroids were separated chromatographically on thin layer plates in chloroform and methanol (90∶10, v/v), and the radioactivity was measured using a scanning radiometer (System AR2000, Bioscan Inc., Washington, DC) as described previously. The percentage conversion of 11DHC to CORT or cortisone to cortisol was calculated by dividing the radioactive counts identified as 11-OH-steroids by the total counts.
as §2

db/db mice = conditions: cited from earlier work
Rat 11β-HSD1 = target: T3, Rat 11β-HSD1 (Rattus norvegicus, UniProt P16232); assay: 11β-HSD1 assay in adult rat testis microsomes; format: biochemical
T3 construct: endogenous in cells; host or cells: primary adult Sprague-Dawley rat Leydig cells
T3 sequence (P16232 whole entry): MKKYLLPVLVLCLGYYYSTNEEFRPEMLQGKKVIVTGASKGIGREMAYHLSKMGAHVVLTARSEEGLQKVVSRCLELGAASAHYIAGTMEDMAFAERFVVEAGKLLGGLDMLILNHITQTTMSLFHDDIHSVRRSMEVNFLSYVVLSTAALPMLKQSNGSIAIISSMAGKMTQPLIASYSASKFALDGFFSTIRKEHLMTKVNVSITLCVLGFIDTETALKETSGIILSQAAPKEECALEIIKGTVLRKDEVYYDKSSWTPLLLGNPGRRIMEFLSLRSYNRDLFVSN
Procedure: Rats were euthanized by CO2, and livers, testes and kidneys were collected. Rat liver, testis and kidney microsomes were prepared as described previously. In brief, rat liver and kidney were homogenized in […] PBS buffer containing 0.25 M sucrose, and nuclei and large cell debris were removed by centrifugation at 1500× g for 10 min. The post-nuclear supernatants were centrifuged twice at 105,000×g, the resultant microsomal pellets were resuspended. Protein contents were measured by Bio-Rad Dye Reagent Concentrate (Cat.#500-0006). Microsomes were used for measurement of 11β-HSD1 and 11β-HSD2 activities.
as §1, with “In brief, the assay tubes contained 25 nM substrate 11DHC (for rat) or cortisone (for human), spiked with 30,000 cpm their respective ^3H-11keto-steroid, 0.2 mM NADPH and 5 mM glucose-6-phosphaare in the PBS buffer.” left out
as §2

rats = conditions: cited from earlier work
Human 11β-HSD1 [2] = target: T2, Human 11β-HSD1; assay: 11β-HSD1 assay in microsomes from CHOP cells transfected with human HSD11B1; format: biochemical
Procedure: as §3
as §1, with “In brief, the assay tubes contained 25 nM substrate 11DHC (for rat) or cortisone (for human), spiked with 30,000 cpm their respective ^3H-11keto-steroid, 0.2 mM NADPH and 5 mM glucose-6-phosphaare in the PBS buffer.” left out
as §2

[3] = human, oral doses up to 8 g; cited from earlier work
[4] = tested on: Sprague-Dawley rats with high-fat-diet-induced metabolic syndrome; assay: High-fat-diet-induced metabolic syndrome treatment in rats; format: in vivo, rat; conditions: for Effect on serum LDL / Effect on serum glucose / Effect on serum total cholesterol / Effect on serum triglyceride (Tg): 200 mg/kg
Procedure: By the end of curcumin treatment, rats were euthanized. The body, liver, kidney and testis weights were recorded. Sera were collected after placing the bloods at room temperature for 25 min and centrifuged at 1500 g/min for 20 minutes. Sera were used for measurement of serum glucose, and lipid analysis. Serum glucose, total cholesterol, low density […], apolipoprotein A1 is (APOA1) and apolipoprotein B (APOB) were measured using a Hitachi 7600 biochemical analyzer (Hitachi, Japan) according to standard clinical protocol.

[5] = HFD rats, 200 mg/kg curcumin, 2 months, vs HFD
[6] = HFD rats, 200 mg/kg curcumin, 2 months, vs HFD, listed as Curcumin
[7] = HFD rats, 200 mg/kg curcumin, 2 months, vs HFD, listed as curcumin
[8] = HFD rats, 200 mg/kg/day gavage, 2 months, Mean ± SEM, n = 10

COc1cc(/C=C/C(=O)CC(=O)/C=C/c2ccc(O)c(OC)c2)ccc1O [1 (Curcumin), Curcumin]
Mode of inhibition of human 11β-HSD1 (human liver 11β-HSD1): competitive inhibitor | IC50 (Human 11β-HSD1 [1]; CHOP cells transfected with human HSD11B1, read-out: Human 11β-HSD1 IC50 (nM) in CHOP cells): 2300 nM | IC50 (Human 11β-HSD1 [1]; IC50 human 11β-HSD1 in intact cells, intact CHOP cells transfected with human HSD11B1): 5780 ± 2220 nM | IC50 (Human 11β-HSD1 [1]; intact CHOP cells transfected with human HSD11B1, read-out: IC50 human 11β-HSD1 in intact cells): 2290 nM and 2000 to 6000 nM and 2300 nM | Effect on body weights (db/db mice): lowered | Effect on insulin resistance (db/db mice): corrected | Effect on serum glucose levels (db/db mice): significantly reduced | IC50 (Rat 11β-HSD1): 4.18 ± 0.24 µM | Effect on serum and liver cholesterol levels (rats): lowered | IC50 (Human 11β-HSD1 [2]): 10.6 ± 7.17 µM | Time to peak level after oral administration [3]: ≤ 1 h | Effect on lipid profiles / HFD-induced dyslipidemia ([4]; 200 mg/kg/day oral, HFD rats): effectively improved; also recorded: effectively prevented | Effect on serum APOA1 [4, 5]: significantly lowered | Effect on serum APOB [4, 5]: significantly lowered | Effect on serum LDL [4, 6]: reduced | Effect on serum glucose [4, 6]: reduced | Effect on serum total cholesterol [4, 6]: reduced | Effect on serum triglyceride (Tg) [4, 6]: reduced | Effect on serum LDL [4, 7]: significantly lowered | Effect on serum glucose [4, 7]: significantly lowered | Effect on serum total cholesterol [4, 7]: significantly lowered | Effect on serum triglyceride (Tg) [4, 7]: significantly lowered | Body weight (g) [4, 8]: 324.8±6.614^b g | Kidney(g) [4, 8]: 1.309±0.0756^a g | Liver(g) [4, 8]: 10.67±0.297^a g | Testis(g) [4, 8]: 2.664±0.1012^a g | Weight Gain(g) [4, 8]: 136.3±6.516^c g | Effect on HFD-induced increase of body weight gain ([4]; two months of treatment): reduced | Effect on HFD-induced increase of liver weight ([4]; two months of treatment): reduced | Effect on kidney weight ([4]; two months of treatment): did not affect | Effect on testis weight ([4]; two months of treatment): did not affect | Adverse effects during treatment ([4]; two-month treatment, 200 mg/kg/day): no adverse effects
